The subject of series [1] is epimastigote form of Y strain T. cruzi. Kind of series: Anti-epimastigote effect (direct count of live epimastigotes after 7 days). Format: cell-based, Trypanosoma cruzi. The conditions noted are these: mean of triplicate. How it is done:
(§1) Trypanosoma cruzi (Y strain) was obtained from the Fundação Oswaldo Cruz (Rio de Janeiro, Brazil) culture collection, and maintained in the Laboratory of Glycobiology (UFRJ, Rio de Janeiro, Brazil) facilities. Epimastigote forms were maintained by weekly transfers at 28 °C in brain-heart-infusion (BHI) medium (Acumedia, Lansing, MI, USA), supplemented with 10 mg of hemin (Sigma, St. Louis, MO, USA), 20 mg of folic acid L^−1 (Sigma) and 10% heat-inactivated fetal calf serum (FCS) (BHI-FCS medium, Gibco, Grand Island, NY, USA). Tissue culture-derived trypomastigotes were obtained after infection of confluent monolayers of Vero cells (kidney epithelial cells extracted from African green monkeys) with blood trypomastigotes (Y strain) to establish the intracellular cycle and maintained in RPMI 1640 medium containing 10% FCS under an atmosphere of 5% CO2 at 37 °C. The tissue culture-derived trypomastigotes were used to infect Mø in vitro to evaluate the toxic effects of the drugs.
For evaluation of the anti-epimastigote effects, parasites (1 × 10^5 cells per mL) were subcultured in the absence or presence of different concentrations (0.5 to 25 μg.mL^−1) of the drugs 9a–9m, from a 5 mg mL^−1 stock solution in DMSO (Sigma). The parasites were incubated in BHI-FCS medium with or without drugs in a final volume of 1.0 mL in 24-well plates (TPP, Trasadingen, Switzerland), and after 7 days, the toxic effects of the drugs were quantified by the direct count of the live epimastigotes in a Neubauer chamber.
(§2) The 50% inhibitory concentrations (IC50) values shown in the Table 1 represent the mean of experiments carried out in triplicate. The IC50 of all compounds were determined by linear regression analysis using the program IGOR Pro 2.03 (WaveMetrics, Inc, Lake Oswego, OR, USA).

In the next series the test system is amastigotes of T. cruzi. Kind of series: Anti-amastigote effect in infected peritoneal macrophages. Format: cell-based. The note with it: Trypanosoma cruzi, Peritoneal macrophage, in Mus musculus; T. cruzi Y strain, intracellular amastigotes in BALB/c peritoneal Mø, 0.5-5.0 µg mL−1; ≥ = maximum concentration allowed by trypan blue exclusion assay. How it is done:
as §1
Resident peritoneal Mø from non-infected BALB/c mice were harvested and cultured as described above. Adhered Mø were infected with T. cruzi trypomastigotes at a 10:1 parasite/macrophage ratio and incubated at 37 °C under 5% CO2 for 1 h. […] After, monolayers were washed with PBS at 37 °C, fixed in methanol, and stained with Giemsa (Sigma). The amastigote survival was determined by the counting of 200 cells in triplicate, the percentage of infected cells was analyzed, as well as the number of amastigotes per macrophage and the endocytic index of the infected cells.
as §2

Series [2] has as its system peritoneal macrophages (Mø) from Balb/c mice. Kind of series: Cytotoxicity to macrophages (trypan blue dye exclusion assay). In kind it is cell-based. The note with it: murine macrophages, 0.5-5 μg mL−1, 72 h. As to the method: The evaluation of the toxic effects of the compounds was carried out as previously described. Murine peritoneal Mø were seeded (1 × 10^6 cells per well) in 24-well plates with 1 mL of RPMI medium containing 10% FCS. […] The five drugs were assayed in increasing concentrations (0.5, 1.0, 2.5, 5.0 µg mL^−1). Afterwards, the cells were washed with PBS, and RPMI was added to the culture before the addition of vital dye trypan blue in a final concentration of 0.01%. The toxic effects of the drugs were monitored by the count of 200 cells in a Neubauer chamber where plasma membrane permeability was evaluated.

SMILES strings stand for the structures. A value given as a limit tells only on which side of the number the result lay.

As a reminder, the IC50 is the concentration needed to halve the response being measured. Low values mean greater potency, high ones weaker potency. Broadly, the melting point is the temperature, or range, at which the solid turns liquid. Consider `FC(F)(F)c1ccc(-n2c(/C=C/C=C/c3ccc4c(c3)OCO4)n[nH]c2=S)cc1` [9m, 5-[(1E,3E)-4-(1,3-Benzodioxol-5-yl)buta-1,3-dien-1-yl]-4-[4-(trifluoromethyl)phenyl]-2,4-dihydro-3H-1,2,4-triazole-3-thione], for which the melting point was 232 to 233 °C. In addition, the IC50 in series [1] (Trypanosoma cruzi, 168 h) was less than 30 µM. The same molecule yielded an IC50 in series [1] of 18.5 ± 3.95 µM. In addition, in the series with amastigotes of T. cruzi, the IC50 amounted to 9.59 ± 2.87 µM.
As to `S=c1[nH]nc(/C=C/C=C/c2ccc3c(c2)OCO3)n1Cc1ccccc1` [9h, 5-[(1E,3E)-4-(1,3-Benzodioxol-5-yl)buta-1,3-dien-1-yl]-4-benzyl-2,4-dihydro-3H-1,2,4-triazole-3-thione], the melting point was in the range of 187 to 188 °C. This molecule also showed a concentration for half-maximal inhibition (IC50) in series [1] (Trypanosoma cruzi, 168 h) of 39.4 ± 6.88 µM.
As for `CCCCCCn1c(/C=C/C=C/c2ccc3c(c2)OCO3)n[nH]c1=S` [9e, 5-[(1E,3E)-4-(1,3-Benzodioxol-5-yl)buta-1,3-dien-1-yl]-4-hexyl-2,4-dihydro-3H-1,2,4-triazole-3-thione], the melting point is 124 to 125 °C. This molecule had an IC50 in series [1] (Trypanosoma cruzi, 168 h) of less than 30 µM. In addition, in series [1], the half-maximal inhibitory concentration (IC50) turned out to be 15.4 ± 4.47 µM. For the same molecule, the IC50 in the series with amastigotes of T. cruzi was no less than 14 µM.
The like results for `CC(C)n1c(/C=C/C=C/c2ccc3c(c2)OCO3)n[nH]c1=S` [9c, 5-[(1E,3E)-4-(1,3-Benzodioxol-5-yl)buta-1,3-dien-1-yl]-4-isopropyl-2,4-dihydro-3H-1,2,4-triazole-3-thione] were, in that order, 210 to 211 °C, less than 30 µM, 27 ± 6.98 µM and 11.1 ± 1.26 µM.
For the molecule `CCn1c(/C=C/C=C/c2ccc3c(c2)OCO3)n[nH]c1=S` [9b, 5-[(1E,3E)-4-(1,3-Benzodioxol-5-yl)buta-1,3-dien-1-yl]-4-ethyl-2,4-dihydro-3H-1,2,4-triazole-3-thione], the melting point fell in the range of 208 to 209 °C. Also, the concentration for half-maximal inhibition (IC50) in series [1] (Trypanosoma cruzi, 168 h) is 50.2 ± 10.8 µM.
For `O=C(Cn1ccnc1[N+](=O)[O-])NCc1ccccc1` [Benznidazole, benznidazole, reference compound], the half-inhibitory concentration (IC50) in series [1] (Trypanosoma cruzi, 168 h) was 2.2 ± 0.16 µM; in the series on amastigotes of T. cruzi it was 2.5 ± 0.21 µM.
For the molecule `S=c1[nH]nc(/C=C/C=C/c2ccc3c(c2)OCO3)n1-c1ccccc1` [9g, 5-[(1E,3E)-4-(1,3-Benzodioxol-5-yl)buta-1,3-dien-1-yl]-4-phenyl-2,4-dihydro-3H-1,2,4-triazole-3-thione], the melting point was in the range of 244 to 245 °C. Also, in series [1] (Trypanosoma cruzi, 168 h), the IC50 worked out at 39 ± 8.88 µM.
`S=c1[nH]nc(/C=C/C=C/c2ccc3c(c2)OCO3)n1C1CCCCC1` [9f, 5-[(1E,3E)-4-(1,3-Benzodioxol-5-yl)buta-1,3-dien-1-yl]-4-cyclohexyl-2,4-dihydro-3H-1,2,4-triazole-3-thione] displayed a melting point of 192 to 194 °C. In series [1] (Trypanosoma cruzi, 168 h), this molecule showed an IC50 of less than 30 µM. In series [1], the IC50 stood at 18.3 ± 5.21 µM. In addition, in the series on amastigotes of T. cruzi, the midpoint of inhibition, the IC50, lay at 8.87 ± 2.39 µM. Besides, the “toxicity on host cells” value in series [2] was “low toxic effects”.
As to `CCCCn1c(/C=C/C=C/c2ccc3c(c2)OCO3)n[nH]c1=S` [9d, 5-[(1E,3E)-4-(1,3-Benzodioxol-5-yl)buta-1,3-dien-1-yl]-4-butyl-2,4-dihydro-3H-1,2,4-triazole-3-thione], the melting point lay within 173 to 174 °C. The molecule further returned an IC50 with amastigotes of T. cruzi of no less than 15.2 µM.
With `Cn1c(/C=C/C=C/c2ccc3c(c2)OCO3)n[nH]c1=S` [9a, 5-[(1E,3E)-4-(1,3-Benzodioxol-5-yl)buta-1,3-dien-1-yl]-4-methyl-2,4-dihydro-3H-1,2,-triazole-3-thione], the melting point is 220 to 222 °C. Besides, the IC50 in series [1] (Trypanosoma cruzi, 168 h) was 44.2 ± 7.3 µM.
The like results for `COc1cc(-n2c(/C=C/C=C/c3ccc4c(c3)OCO4)n[nH]c2=S)cc(OC)c1OC` [9i, 5-[(1E,3E)-4-(1,3-Benzodioxol-5-yl)buta-1,3-dien-1-yl]-4-(3,4,5-trimethoxyphenyl)-2,4-dihydro-3H-1,2,4-triazole-3-thione] were, in that order, 242 to 243 °C and 35.3 ± 6.26 µM.
Molecule `CSc1ccc(-n2c(/C=C/C=C/c3ccc4c(c3)OCO4)n[nH]c2=S)cc1` [9k, 5-[(1E,3E)-4-(1,3-Benzodioxol-5-yl)buta-1,3-dien-1-yl]-4-[4-(methylthio)phenyl]-2,4-dihydro-3H-1,2,4-triazole-3-thione] yielded a melting point of 209 to 211 °C. This molecule also registered an IC50 in series [1] (Trypanosoma cruzi, 168 h) of 40.8 ± 10.5 µM.
With `CC(C)(C)n1c(/C=C/C=C/c2ccc3c(c2)OCO3)n[nH]c1=S` [9j, 5-[(1E,3E)-4-(1,3-Benzodioxol-5-yl)buta-1,3-dien-1-yl]-4-tert-butyl-2,4-dihydro-3H-1,2,4-triazole-3-thione], the melting point lay in the range of 183 to 184 °C. In series [1] (Trypanosoma cruzi, 168 h), the midpoint of inhibition, the IC50, lay at 50.8 ± 10.6 µM.
Turning to `COc1cccc(-n2c(/C=C/C=C/c3ccc4c(c3)OCO4)n[nH]c2=S)c1` [9l, 5-[(1E,3E)-4-(1,3-Benzodioxol-5-yl)buta-1,3-dien-1-yl]-4-(3-methoxyphenyl)-2,4-dihydro-3H-1,2,4-triazole-3-thione], the melting point fell in the range of 248 to 249 °C. The same molecule came in with an IC50 in series [1] (Trypanosoma cruzi, 168 h) of 48 ± 6.06 µM.

For the origin of these results see article PMC6270562, “Design, Synthesis and Trypanocidal Evaluation of Novel 1,2,4-Triazoles-3-thiones Derived from Natural Piperine” (Molecules, 2013).
